According to EP4692114A1, “CALCITONIN ANALOGUE, AND DERIVATIVE THEREOF AND USE THEREOF” (Hangzhou Sciwind Biosciences Co., Ltd., priority 2023, dated 2024):
*1 amine or outer side, *2 acyl side, *3 side chain or, on linkers, in order; H or OH if unused. Where a SMILES comes first, the peptide text is derived from it. The star is where a group is joined. C20 diacid = O=C(O)CCCCCCCCCCCCCCCCCCC(=O)*; γGlu = O=C(O)[C@H](CCC(=O)[*:2])N[*:1]

Legend:
[1] = Study of weight change and food consumption in rats; format: in vivo, SD (Sprague Dawley) rats; settings: SD rats, subcutaneous, 10 nmol/kg; for Effect on reducing food intake: accumulated food intake recorded every 24 hours (FIGs. 7 and 9); for Effect on reducing body weight: recorded every 24 hours (FIGs. 6 and 8)
Text: SD (Sprague Dawley) rats weighing 200-250 g were used for this study. The rats were received at least 10-14 days before the study began such that they could accommodate to the experimental environment. After arrival, they were exposed to a reversed light/dark cycle (i.e., lights switched off in daytime and on in nighttime) for two weeks and were individually housed for the first week so as to ensure high data accuracy and test sensitivity. Throughout the acclimation and experiment period, the rats had free access to food and water. 5-8 rats were assigned to each testing group for the derivatives and were subcutaneously administered the derivatives at a dose of 10 nmol/kg or a vehicle, and the dosing timepoint was recorded for each group. After dosing, the rats were put back into cages where they were housed and could have access to food and water. Food consumption and weight change of the rats were recorded online or manually every 24 hours.

human amylin receptors = target: T1, human amylin receptors (Homo sapiens, UniProt O60896+P30988); assay: Luciferase assay of amylin (amylin receptor/CRE-luc cell line); format: cell-based; settings: stably transfected amylin receptor/CRE-luc CHO cells (CHO-K1/Gal5/AMY3), 24 hours incubation, luciferase readout;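 note: agonist potency from luminescence of cAMP response element-driven luciferase, EC50 derived from a standard curve of signal versus compound concentration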
T1 sequence (P30988 25-474): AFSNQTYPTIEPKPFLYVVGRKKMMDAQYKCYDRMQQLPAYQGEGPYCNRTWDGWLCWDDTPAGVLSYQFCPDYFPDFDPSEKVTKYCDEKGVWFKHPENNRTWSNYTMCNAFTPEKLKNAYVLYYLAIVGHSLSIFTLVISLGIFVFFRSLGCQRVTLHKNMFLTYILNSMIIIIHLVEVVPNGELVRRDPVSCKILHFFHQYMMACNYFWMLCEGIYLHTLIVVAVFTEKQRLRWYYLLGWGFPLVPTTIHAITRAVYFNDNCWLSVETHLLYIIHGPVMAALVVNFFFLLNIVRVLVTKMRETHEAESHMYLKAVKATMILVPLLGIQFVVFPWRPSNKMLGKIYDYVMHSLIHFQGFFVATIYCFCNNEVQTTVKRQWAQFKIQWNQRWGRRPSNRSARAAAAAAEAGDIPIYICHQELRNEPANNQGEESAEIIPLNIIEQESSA
T1 sequence (O60896 24-148 partner): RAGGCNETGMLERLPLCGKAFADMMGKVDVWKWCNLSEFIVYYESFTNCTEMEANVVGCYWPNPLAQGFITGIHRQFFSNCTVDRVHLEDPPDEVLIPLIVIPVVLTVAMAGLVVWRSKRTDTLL
Text: The objective of this assay is to test the activity or potency of calcitonin analogues or derivatives on human amylin receptors in vitro using a luciferase assay.
Using the standard protocol, CHO-K1/Gal5/AMY3 cells (purchased from GenScript, with the calcitonin receptor and the receptor activity modifying peptide (RAMP) constructed already) were transfected with a plasmid containing a luciferase expression cassette driven by multiple copies of cAMP response elements (CREs). The cells were cultured in an F12 medium containing 200 ug/mL Zeocin, 2 ug/mL puromycin, 100 ug/mL hygromycin, and 400 ug/mL G418 to afford a stably transfected amylin receptor/CRE-luc cell line.
To each well of a white 96-well plate was added 50 µL of the tested sample solution at a respective concentration.
The stably transfected amylin receptor/CRE-luc CHO cells were resuspended in the growth medium at a certain density, and 50 µL of the cell suspension was added at a density of about 20000 cells per well to the white 96-well plate containing the tested sample solution. After incubation of 24 hours at 37°C and 5% CO2, 100 µL of a Luciferase substrate was added to each well, incubated for 3 minutes, and finally was tested for luminescence on SpectraMax L (Molecular Devices) with the software SoftMax Pro 7.0.3 GxP. A standard curve was plotted using the fluorescent intensities for calculation of EC50.

[2] = Heat accelerated stability assay under a neutral condition; format: physicochemical; settings: pH about 7.4, 40°C; for Changes in characteristics or properties, 0d / Changes in characteristics or properties, 7d / Characteristics or properties on Day 26: 1 mg/mL, phosphate; for Concentration change (7d-0d)/%: Day 7 vs Day 0, reversed phase chromatography; for Purity Change% (7d-0d): purity from reversed phase chromatography-214 nm, Day 7 vs Day 0
Procedure, shortened: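 Peptide (1 mg/mL) with sodium dihydrogen phosphate (1.42 mg/mL) in water, pH ~7.4, was sterile-filtered and stored at 40 °C, sampled on days 7 and 26. After centrifugation, concentration and purity (target/total peak area) were measured by reversed-phase HPLC at 214 and 280 nm, water/0.05% TFA to acetonitrile gradient, 25 °C column.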

EC50 (human amylin receptors) [pM] | Changes in characteristics or properties, 0d [2] | Changes in characteristics or properties, 7d [2] | Characteristics or properties on Day 26 [2] | Concentration change on Day 26 as compared to Day 0 ([2]; Day 26 vs Day 0) | SMILES | Effect on reducing food intake [1] | Effect on reducing body weight [1] | Concentration change (7d-0d)/% [2] | Purity Change% (7d-0d) [2]
17 | Clear | Clear | clear solution | – | CC(C)C[C@H](NC(=O)[C@H](CCCNC(=N)N)NC(=O)CNC(=O)[C@H](CC(C)C)NC(=O)[C@@H](NC(=O)[C@H](C)NC(=O)[C@@H](NC(=O)[C@H](CO)NC(=O)[C@H](CC(C)C)NC(=O)[C@H](CCC(N)=O)NC(=O)[C@H](CO)NC(=O)[C@H](C)NC(=O)CC[C@H](NC(=O)CCCCCCCCCCCCCCCCCCC(=O)O)C(=O)O)[C@@H](C)O)C(C)C)C(=O)N[C@@H](CO)C(=O)N[C@@H](CCC(=O)O)C(=O)N[C@@H](CCC(=O)O)C(=O)N[C@@H](CC(C)C)C(=O)N[C@@H](Cc1c[nH]cn1)C(=O)N[C@@H](CCCNC(=N)N)C(=O)N[C@@H](CC(C)C)C(=O)N[C@@H](CCC(N)=O)C(=O)N[C@@H](CC(=O)O)C(=O)N[C@@H](Cc1ccc(O)cc1)C(=O)N1CCC[C@H]1C(=O)N[C@@H](CCCNC(=N)N)C(=O)N[C@H](C(=O)N[C@@H](CC(=O)O)C(=O)N[C@H](C(=O)NCC(=O)N[C@@H](CO)C(=O)NCC(=O)N[C@@H](CO)C(=O)N1CCC[C@H]1C(N)=O)C(C)C)[C@@H](C)O [M9] ({C20 diacid-γGlu}-ASQLSTAVLGRLSEELHRLQDYPRTDVGSGSP-NH2) | particularly effective | particularly effective | No change (a decrease of less than 1% from the initial value to the detected content is denoted as "no change") | No change (a decrease of less than 1% from the initial value to the detected content is denoted as "no change")
17 | Clear | Clear | clear solution | less than 2% | CC(C)C[C@H](NC(=O)[C@H](CCCNC(=N)N)NC(=O)CNC(=O)[C@H](CC(C)C)NC(=O)[C@@H](NC(=O)[C@H](C)NC(=O)[C@@H](NC(=O)[C@H](CO)NC(=O)[C@H](CC(C)C)NC(=O)[C@H](CCC(N)=O)NC(=O)[C@H](CO)NC(=O)[C@H](C)NC(=O)CC[C@H](NC(=O)CCCCCCCCCCCCCCCCCCC(=O)O)C(=O)O)[C@@H](C)O)C(C)C)C(=O)N[C@@H](CO)C(=O)N[C@@H](CCC(N)=O)C(=O)N[C@@H](CCC(=O)O)C(=O)N[C@@H](CC(C)C)C(=O)N[C@@H](Cc1c[nH]cn1)C(=O)N[C@@H](CCCNC(=N)N)C(=O)N[C@@H](CC(C)C)C(=O)N[C@@H](CCC(=O)O)C(=O)N[C@@H](CC(=O)O)C(=O)N[C@@H](Cc1ccc(O)cc1)C(=O)N1CCC[C@H]1C(=O)N[C@@H](CCCNC(=N)N)C(=O)N[C@H](C(=O)N[C@@H](CC(=O)O)C(=O)N[C@H](C(=O)NCC(=O)N[C@@H](CO)C(=O)NCC(=O)N[C@@H](CO)C(=O)N1CCC[C@H]1C(N)=O)C(C)C)[C@@H](C)O [M13] ({C20 diacid-γGlu}-ASQLSTAVLGRLSQELHRLEDYPRTDVGSGSP-NH2) | particularly effective | particularly effective | – | No change (a decrease of less than 1% from the initial value to the detected content is denoted as "no change")

More lines, now with the values behind:

SMILES | EC50 (human amylin receptors) [pM] | Changes in characteristics or properties, 0d [2] | Changes in characteristics or properties, 7d [2] | Characteristics or properties on Day 26 [2] | Concentration change on Day 26 as compared to Day 0 ([2]; Day 26 vs Day 0) | Effect on reducing food intake [1] | Effect on reducing body weight [1] | Concentration change (7d-0d)/% [2] | Purity Change% (7d-0d) [2]
CC(C)C[C@H](NC(=O)[C@H](CCCNC(=N)N)NC(=O)CNC(=O)[C@H](CC(C)C)NC(=O)[C@@H](NC(=O)[C@H](C)NC(=O)[C@@H](NC(=O)[C@H](CO)NC(=O)[C@H](CC(C)C)NC(=O)[C@H](CCC(N)=O)NC(=O)[C@H](CO)NC(=O)[C@H](C)NC(=O)CC[C@H](NC(=O)CCCCCCCCCCCCCCCCCCC(=O)O)C(=O)O)[C@@H](C)O)C(C)C)C(=O)N[C@@H](CO)C(=O)N[C@@H](CCC(N)=O)C(=O)N[C@@H](CCC(=O)O)C(=O)N[C@@H](CC(C)C)C(=O)N[C@@H](Cc1c[nH]cn1)C(=O)N[C@@H](CCCNC(=N)N)C(=O)N[C@@H](CC(C)C)C(=O)N[C@@H](CCC(N)=O)C(=O)N[C@@H](CC(=O)O)C(=O)N[C@@H](Cc1ccc(O)cc1)C(=O)N1CCC[C@H]1C(=O)N[C@@H](CCCNC(=N)N)C(=O)N[C@H](C(=O)N[C@@H](CC(=O)O)C(=O)N[C@H](C(=O)NCC(=O)N[C@@H](C)C(=O)N[C@@H](CCC(=O)O)C(=O)N[C@@H](CO)C(=O)N1CCC[C@H]1C(N)=O)C(C)C)[C@@H](C)O [M20] ({C20 diacid-γGlu}-ASQLSTAVLGRLSQELHRLQDYPRTDVGAESP-NH2) | 17 | – | – | – | – | prominent effect | prominent effect | – | –
CC(C)C[C@H](NC(=O)[C@H](CCCNC(=N)N)NC(=O)CNC(=O)[C@H](CC(C)C)NC(=O)[C@@H](NC(=O)[C@H](C)NC(=O)[C@@H](NC(=O)[C@H](CO)NC(=O)[C@H](CC(C)C)NC(=O)[C@H](CCC(N)=O)NC(=O)[C@H](CO)NC(=O)[C@H](C)NC(=O)CC[C@H](NC(=O)CCCCCCCCCCCCCCCCCCC(=O)O)C(=O)O)[C@@H](C)O)C(C)C)C(=O)N[C@@H](CO)C(=O)N[C@@H](CCC(N)=O)C(=O)N[C@@H](CCC(=O)O)C(=O)N[C@@H](CC(C)C)C(=O)N[C@@H](Cc1c[nH]cn1)C(=O)N[C@@H](CCCNC(=N)N)C(=O)N[C@@H](CC(C)C)C(=O)N[C@@H](CCC(N)=O)C(=O)N[C@@H](CC(=O)O)C(=O)N[C@@H](Cc1ccc(O)cc1)C(=O)N1CCC[C@H]1C(=O)N[C@@H](CCCNC(=N)N)C(=O)N[C@H](C(=O)N[C@@H](CC(=O)O)C(=O)N[C@H](C(=O)NCC(=O)N[C@@H](C)C(=O)NCC(=O)N[C@@H](CO)C(=O)N1CCC[C@H]1C(N)=O)C(C)C)[C@@H](C)O [M19] ({C20 diacid-γGlu}-ASQLSTAVLGRLSQELHRLQDYPRTDVGAGSP-NH2) | 16 | Clear | Clear | – | – | prominent effect | prominent effect | No change (a decrease of less than 1% from the initial value to the detected content is denoted as "no change") | No change (a decrease of less than 1% from the initial value to the detected content is denoted as "no change")
CC(C)C[C@H](NC(=O)[C@H](CCCNC(=N)N)NC(=O)CNC(=O)[C@H](CC(C)C)NC(=O)[C@@H](NC(=O)[C@H](C)NC(=O)[C@@H](NC(=O)[C@H](CO)NC(=O)[C@H](CC(C)C)NC(=O)[C@H](CCC(N)=O)NC(=O)[C@H](CO)NC(=O)[C@H](C)NC(=O)CC[C@H](NC(=O)CCCCCCCCCCCCCCCCCCC(=O)O)C(=O)O)[C@@H](C)O)C(C)C)C(=O)N[C@@H](CO)C(=O)N[C@@H](CCC(N)=O)C(=O)N[C@@H](CCC(=O)O)C(=O)N[C@@H](CC(C)C)C(=O)N[C@@H](Cc1c[nH]cn1)C(=O)N[C@@H](CCCNC(=N)N)C(=O)N[C@@H](CC(C)C)C(=O)N[C@@H](CCC(N)=O)C(=O)N[C@@H](CC(=O)O)C(=O)N[C@@H](CC(C)C)C(=O)N1CCC[C@H]1C(=O)N[C@@H](CCCNC(=N)N)C(=O)N[C@H](C(=O)N[C@@H](CC(=O)O)C(=O)N[C@H](C(=O)NCC(=O)N[C@@H](CO)C(=O)NCC(=O)N[C@@H](CO)C(=O)N1CCC[C@H]1C(N)=O)C(C)C)[C@@H](C)O [M18] ({C20 diacid-γGlu}-ASQLSTAVLGRLSQELHRLQDLPRTDVGSGSP-NH2) | – | – | – | – | – | particularly effective | particularly effective | – | –
